Data taken from patent US10729817B2, “Medical device and plasticized nylon” (Medtronic Vascular, Inc., priority 2013, dated 2020).

Experiments:
[1] = Flexural properties of pressed films, ASTM D790-97B; format: physicochemical; conditions: for Flexural elastic modulus: 10 wt-% plasticizer in RILSAN Nylon-12 film
Method: (§1) Samples of 5, 10, and 15 wt-% of plasticizer from Example 1 were compounded with Nylon-12 in a Brabender mixer at 210° C. Sheets (30-mils thick) were pressed at 200° C. Tensile specimens were punched and tested on an INSTRON testing machine at a cross-head speed of 2 inches/minute according to ASTM D638 test Method. The flexural properties were tested according to ASTM D790-97B test method. The average tensile and flexural moduli of plasticized Nylon-12 are shown in FIG. 3 and FIG. 4, respectively.

[2] = Thermal properties of plasticized Nylon-12 by DSC; format: physicochemical
[3] = Tensile test of pressed films, ASTM D638, INSTRON; format: physicochemical; conditions: for Elongation / Tensile Modulus / Tensile Strength / Tensile elastic modulus: 10 wt-% plasticizer in RILSAN Nylon-12 film; for Elongation / Tensile Modulus / Tensile Strength: Nylon-12 unplasticized
Method: as §1
(§2) A sample of 10 wt-% of plasticizer from each of Examples 15-17 was compounded with RILSAN Nylon-12 as described in Example 2. The melting point (mp) and crystallinity was determined by DSC.
(§3) A sample of 10 wt-% of plasticizer from each of Examples 4-5 and 19-20 was compounded with RILSAN Nylon-12 as described in Example 2. The melting point (mp) and crystallinity was determined by DSC.
A sample of 5-10 wt-% in RILSAN Nylon-12 was compounded with 5-10 wt-% plasticizer from Example 8 under similar conditions as in Example 9. Sheets (30-mils thick) were pressed at 200° C. from pellets. Tensile specimens were punched and tested on an INSTRON testing machine at a cross-head speed of 2 inches/minute according to ASTM D638 test Method.

[4] = Thermal properties of plasticized Nylon-12 by DSC; format: physicochemical; conditions: for Crystallinity / mp: 10 wt-% plasticizer in RILSAN Nylon-12, Nylon-12 unplasticized
Method: as §1, §2, §3

[5] = 5, 10, 15 wt-% plasticizer in Nylon-12
[6] = 10 wt-% plasticizer in GRILAMID L25 Nylon-12
[7] = 5-10 wt-% plasticizer in RILSAN Nylon-12

With CCCCCCCC(=O)NCCN(CCNC(=O)CCCCCCC)C(=O)CCCCCCC [Example 1, N,N′,N″-trioctanoyl diethylenetriamine] the “Flexural modulus of Nylon-12 after adding the plasticizer” value [1, 5] was “decreased”, the ΔHm ([2]; 5% plasticizer in Nylon-12) was 60.2 J/g and the “% Crystallinity” value ([2]; 10% plasticizer in Nylon-12) was 27.8%. The “Tm Melt peak” value ([2]; 10% plasticizer in Nylon-12) was 175.9 °C, the “Tm Melt peak” value ([2]; 15% plasticizer in Nylon-12) was 173.9 °C and the ΔHm ([2]; 15% plasticizer in Nylon-12) was 54.7 J/g. For the same compound, the “Tensile modulus of Nylon-12 after adding the plasticizer” value [3, 5] was “decreased”, the “% Crystallinity” value ([4]; 5% plasticizer in Nylon-12) was 28.8% and the “Tm Melt peak” value ([4]; 5% plasticizer in Nylon-12) was 176.6 °C. The ΔHm ([4]; 10% plasticizer in Nylon-12) was 58.2 J/g and the “% Crystallinity” value ([4]; 15% plasticizer in Nylon-12) was 26.2%.
With CCCCCCC(=O)NCCN(CCNC(=O)CCCCCC)C(=O)CCCCCC [Example 4, N,N′,N″-triheptanoyl diethylenetriamine] the Elongation ([3]; Table 3) was 231%, the “Tensile Modulus” value ([3]; Table 3) was 66588 psi and the “Tensile Strength” value ([3]; Table 3) was 7422 psi. For the same compound, the Crystallinity ([4]; Table 3) was 29.8 % by DSC and the mp ([4]; Table 3) was 175.2 °C.
With CCCCCCCCC(=O)NCCN(CCNC(=O)CCCCCCCC)C(=O)CCCCCCCC [Example 5, N,N′,N″-trinonanoyl diethylenetriamine] the Elongation ([3]; Table 3) was 226%, the “Tensile Modulus” value ([3]; Table 3) was 74935 psi and the “Tensile Strength” value ([3]; Table 3) was 7411 psi. The Crystallinity ([4]; Table 3) was 29.2 % by DSC and the mp ([4]; Table 3) was 176.0 °C.
With CCCCCCCC(=O)NCCN(CCNC(=O)CCCCCCC)C(=O)CCCCCCC [Example 8, N,N′,N″-trioctanoyl diethylenetriamine] the “Flexural modulus after adding plasticizer” value [1, 6] was “decreased significantly”, the Flexural elastic modulus ([1]; listed as unpurified material) was 72345 psi and the “Tensile modulus versus plasticizer content” value [3, 7] was “decreased with increasing plastic content”. The “Tensile strength versus plasticizer content” value [3, 7] was “did not change”, the “Tensile strength of base resin GRILAMID L25 after adding plasticizer” value [3, 6] was “maintained” and the Tensile elastic modulus ([3]; listed as unpurified material) was 82997 psi.
Compound CCCCCCCC(=O)NCCN(CCNC(=O)CCCCCCC)C(=O)CCCCCCC [Example 13, N,N′,N″-trioctanoyl diethylenetriamine] has a Flexural elastic modulus [1] of 71839 psi, a melting point of 97.9 °C and a Tensile elastic modulus [3] of 85644 psi.
With CCCCCCC(=O)NCCCN(CCNC(=O)CCCCCC)C(=O)CCCCCC [Example 16, N-(2-aminoethyl)-1,3-propanediamine heptanoic acid triamide] the Elongation ([3]; Table 2) was 258%, the “Tensile Modulus” value ([3]; Table 2) was 83455 psi and the “Tensile Strength” value ([3]; Table 2) was 8637 psi. The Crystallinity ([4]; Table 2) was 24.6 % by DSC and the mp ([4]; Table 2) was 175.6 °C.
For CCCCCCCC(=O)NCCCN(CCNC(=O)CCCCCCC)C(=O)CCCCCCC [Example 17, N-(2-aminoethyl)-1,3-propanediamine octanoic acid triamide], the Elongation ([3]; Table 2) was 263%, the “Tensile Modulus” value ([3]; Table 2) was 81308 psi and the “Tensile Strength” value ([3]; Table 2) was 8871 psi. It also gave a Crystallinity ([4]; Table 2) of 25.2 % by DSC and a mp ([4]; Table 2) of 175.5 °C.
With CCCCCCCC(=O)NCCN(CCN(CCNC(=O)CCCCCCC)C(=O)CCCCCCC)C(=O)CCCCCCC [Example 18, Triethylenetetramine Octanoic Acid Tetramide] the Elongation ([3]; Table 2) was 238%, the “Tensile Modulus” value ([3]; Table 2) was 95902 psi and the “Tensile Strength” value ([3]; Table 2) was 9079 psi. The Crystallinity ([4]; Table 2) was 26.7 % by DSC and the mp ([4]; Table 2) was 176.2 °C.
With CCCCCCCCCC(=O)NCCN(CCNC(=O)CCCCCCCCC)C(=O)CCCCCCCCC [Example 20, N,N′,N″-tridecanoyl diethylenetriamine] the Elongation ([3]; Table 3) was 251%, the “Tensile Modulus” value ([3]; Table 3) was 83517 psi and the “Tensile Strength” value ([3]; Table 3) was 8034 psi. It also gave a Crystallinity ([4]; Table 3) of 31.0 % by DSC and a mp ([4]; Table 3) of 175.9 °C.
